A short description of the assay: Inhibition Assay: PLK3 inhibition was determined using the Z-Lyte assay kit from Invitrogen (cat #PV3802). The assay was performed using the recommended manufacturer's instructions with 100 μM ATP and 21 nM PLK3 (Invitrogen cat #PV3812). The % inhibition values were determined according to the manufacturer's directions and IC50 values were obtained using a non-linear 4 point logistic curve fit (XLfit4, IDBS).
For `CCc1ccc2c(c1)[C@]1(C[C@H]1c1ccc3c(-c4cccc(CN5CCOCC5)c4)n[nH]c3c1)C(=O)N2`, the IC50 result is “in the range around 2000 nM”. In the case of `COCCN1C(=O)[C@@]2(C[C@H]2c2ccc3c(/C=C/c4ccc(CN(C)C)cc4)n[nH]c3c2)c2ccccc21` it was “in the range around 2000 nM”.

With `COc1ccc2c(c1)[C@]1(C[C@H]1c1ccc3c(-c4cccc(N5CCNCC5)c4)n[nH]c3c1)C(=O)N2` (relative stereo), the 50% inhibitory concentration (IC50) entry is “in the range around 2000 nM”. For `COc1ccc2c(c1)[C@]1(C[C@H]1c1ccc3c(-c4cccc(CN5CCCCC5)c4)n[nH]c3c1)C(=O)N2` (relative stereo) the value was “in the range around 2000 nM”; for `COc1ccc2c(c1)[C@]1(C[C@H]1c1ccc3c(-c4cccc(CN5CCOCC5)c4)n[nH]c3c1)C(=O)N2` (relative stereo), “in the range around 2000 nM”; for `COc1ccc2c(c1)[C@]1(C[C@H]1c1ccc3c(-c4ccc(CO)cc4)n[nH]c3c1)C(=O)N2` (relative stereo), “in the range around 2000 nM”.

Usually IC50 stands for the concentration that inhibits the measured activity by half.
